Laboratory results taken from publication PMC6147116 (Journal of Enzyme Inhibition and Medicinal Chemistry, 2018).
Like-named read-outs stand apart in the source and are kept apart here.

Tests used:
17β-HSD1 = target: T1, 17β-HSD1 (Homo sapiens, UniProt P14061); test: 17β-HSD1 inhibition reversibility test (preincubation with placental cytosol, 50-fold dilution); type: biochemical; details: preincubation 10 μM, 2.5 and 20 min
T1 construct: from tissue; host or cells: human term placenta, cytosolic fraction
T1 sequence (P14061 1-328): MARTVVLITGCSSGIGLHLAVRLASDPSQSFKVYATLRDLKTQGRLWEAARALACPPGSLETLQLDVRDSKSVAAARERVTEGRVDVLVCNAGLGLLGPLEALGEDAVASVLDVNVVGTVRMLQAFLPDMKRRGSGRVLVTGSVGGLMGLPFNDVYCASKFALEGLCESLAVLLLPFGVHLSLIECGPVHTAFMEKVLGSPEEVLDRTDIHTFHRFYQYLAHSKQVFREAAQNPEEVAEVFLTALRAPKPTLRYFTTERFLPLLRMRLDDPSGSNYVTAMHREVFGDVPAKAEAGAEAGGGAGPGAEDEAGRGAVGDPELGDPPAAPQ
Method: (§1) these cases, conversions were measured at 10–15 different concentrations in the appropriate interval between 0.001–50 µM. IC50 results were calculated by using unweighted iterative least squares logistic curve fitting by means of the “absolute IC50 calculation“ function of the GraphPad Prism 4.0 software (GraphPad Software, Inc., San Diego, CA, USA).
(§2) Kinetic analyses were performed via measurement of the enzymatic transformation using different fixed substrate concentrations and varied inhibitor concentrations. The Dixon’s linear transformation (1/velocity vs. inhibitor concentration) was applied for evaluation and the inhibition constant (Ki) was determined from abscissa of intersection of the lines of different substrate concentrations. Mechanism of binding was identified according to the Dixon’s graphs and the secondary plot of slopes of the Dixon’s lines vs. 1/substrate […]
The inhibitor compounds were preincubated with the appropriate placenta fraction in a volume of 4.0 µl at 37 °C for various time periods (2.5-40 min). Following this procedure, samples were diluted with the incubation medium to 50-fold. Enzyme activity measurements were started immediately for the 17β-HSD1 and after 20 min secondary incubation time to allow dissociation in the case of STS. […]

[1] = target: T2, 17β-hydroxysteroid dehydrogenase type 1 (17β-HSD1) (Homo sapiens, UniProt P14061); details: earlier paper of the authors; read-out: 17β-HSD1 IC50 ± SD; cited from earlier work
T2 sequence (P14061 1-328): T1 sequence (P14061 1-328)

[2] = target: T2, 17β-hydroxysteroid dehydrogenase type 1 (17β-HSD1); test: 17β-HSD1 inhibition, in vitro radiosubstrate incubation (E1 to E2), human placental cytosol; Dixon kinetic analysis; type: biochemical; details: for 17β-HSD1 inhibition mechanism: Dixon's plot; for 17β-HSD1 inhibition mechanism / Ki: cofactor excess; for IC50: E1 substrate 1.0 µM, NADPH excess, read-out: 17β-HSD1 IC50 ± SD; for Ki: from Dixon plot
Method: (§3) Enzyme inhibition studies were performed by in vitro radiosubstrate incubations using human term placenta cytosol and microsomas as enzyme sources. […] Relative conversions compared to non-inhibited controls (100%) were measured in the presence of 10 µM concentration of the test compound. […] Mechanistic and kinetic investigations were performed and inhibitory constants (Ki) were determined for selected compounds.
Inhibitors that bind to the steroid site of 17β-HSD1 can bind to both the free enzyme and the binary enzyme–cofactor complex by random kinetic mechanism.
(§4) Enzymatic incubations were carried out in the HEPES buffer medium at a final volume of 200
(§5) µl. The substrate was added to the incubate in 20 µl of a 25 v/v% propylene glycol in HEPES buffer solution, whereas test compounds were applied in 10 µl of dimethyl sulfoxide solution.
(§6) Incubations were performed at 37 °C and terminated by cooling and the addition of organic solvents of the subsequent extraction procedure. Control samples with no inhibitor and blank samples were incubated simultaneously. […]
The incubation time was 2.5 min. The product 17β-estradiol (E2, 5) was extracted with ethyl acetate and isolated by a TLC method (details are published in our earlier reference).
(§7) In the general procedure, incubations were performed as described. Concentrations of the substrates were 1.0 µM, and the test compounds were applied at 10 µM final concentration in the incubate. Relative conversions compared to non-inhibited controls (100%) were determined. The assays were performed in triplicate, and the mean value and the standard deviation (SD) were calculated. […]
as §1, §2
The inhibitor compounds were preincubated with the appropriate placenta fraction in a volume of 4.0 µl at 37 °C for various time periods (2.5-40 min). Following this procedure, samples were diluted with the incubation medium to 50-fold. Enzyme activity measurements

steroid sulfatase (STS) [3] = target: T3, steroid sulfatase (STS) (Homo sapiens, UniProt P08842); test: STS inhibition, in vitro radiosubstrate incubation (release of E1 from E1S), human placental microsomes; Dixon kinetic analysis; type: biochemical; details: for IC50: E1S substrate 1.0 µM, read-out: STS IC50 ± SD; for STS inhibition mechanism: Dixon's plots; for Ki: from Dixon plot
T3 construct: from tissue; host or cells: human term placenta, microsomal fraction
T3 sequence (P08842 22-583): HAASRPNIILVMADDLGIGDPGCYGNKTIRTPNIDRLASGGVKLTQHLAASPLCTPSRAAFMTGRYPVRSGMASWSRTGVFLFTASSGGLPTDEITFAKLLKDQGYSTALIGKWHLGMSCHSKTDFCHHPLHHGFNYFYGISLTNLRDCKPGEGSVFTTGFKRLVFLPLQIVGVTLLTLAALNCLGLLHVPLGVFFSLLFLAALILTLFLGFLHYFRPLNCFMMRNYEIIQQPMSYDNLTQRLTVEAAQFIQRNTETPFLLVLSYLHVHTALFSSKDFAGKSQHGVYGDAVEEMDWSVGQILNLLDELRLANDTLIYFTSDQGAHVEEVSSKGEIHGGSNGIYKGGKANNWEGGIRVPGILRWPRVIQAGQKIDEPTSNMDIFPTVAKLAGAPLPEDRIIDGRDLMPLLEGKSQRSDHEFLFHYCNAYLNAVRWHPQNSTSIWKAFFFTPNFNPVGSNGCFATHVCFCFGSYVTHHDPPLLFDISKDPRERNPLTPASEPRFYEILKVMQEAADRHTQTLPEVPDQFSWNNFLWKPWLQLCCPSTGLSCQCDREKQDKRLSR
Method: as §3
Kinetic analyses of selected compounds 7a and 16c were performed by measurement of enzyme activities using different fixed substrate concentrations and varied inhibitor concentrations.
as §4, §5, §6
The incubation time was 2.5 min. […]
as §7, §1, §2
The inhibitor compounds were preincubated with the appropriate placenta fraction in a volume of 4.0 µl at 37 °C for various time periods (2.5-40 min). Following this procedure, […]

human aromatase = target: T4, human aromatase (Homo sapiens, UniProt P11511); test: Aromatase inhibition, in vitro radiosubstrate incubation (testosterone to E2 conversion), human placental microsomes; type: biochemical; details: for remaining activity at 10 µM: 10 µM test compound, non-inhibited control 100%, mean ± SD, n = 3, read-out: Arom Rel.conv. ± SD
T4 construct: from tissue; host or cells: human term placenta, microsomal fraction
T4 sequence (P11511 1-503): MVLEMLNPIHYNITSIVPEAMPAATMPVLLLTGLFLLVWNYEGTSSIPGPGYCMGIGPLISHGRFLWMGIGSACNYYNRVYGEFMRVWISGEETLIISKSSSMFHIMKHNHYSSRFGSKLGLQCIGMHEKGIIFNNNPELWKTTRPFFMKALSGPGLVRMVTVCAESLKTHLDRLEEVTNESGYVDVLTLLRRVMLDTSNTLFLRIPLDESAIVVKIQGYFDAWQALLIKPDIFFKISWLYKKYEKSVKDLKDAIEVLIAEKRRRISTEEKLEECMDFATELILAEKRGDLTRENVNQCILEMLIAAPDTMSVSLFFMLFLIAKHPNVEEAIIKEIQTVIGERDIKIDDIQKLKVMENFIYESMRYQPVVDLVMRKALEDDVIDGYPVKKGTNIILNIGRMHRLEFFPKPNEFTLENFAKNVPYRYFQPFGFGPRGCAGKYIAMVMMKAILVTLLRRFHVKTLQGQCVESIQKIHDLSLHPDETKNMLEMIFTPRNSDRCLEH
Method: as §3, §4, §5
as §6, with “simultaneously. The radioactivity of the products formed was measured by means of liquid scintillation counting (LSC) and taken as indicator of the” for “simultaneously.”
In the aromatase assays the microsoma suspension was incubated with appropriate concentration of unlabelled testosterone (2) substrate spiked with [1,2,6,7-3H]testosterone tracer, and in the presence of 0.1 mM NADPH cofactor excess. (In this case, solution of the substrate was prepared with acetonitrile instead of propylene glycol.) Incubation time was 40 min. The incubation mixture was extracted with toluene, then the toluene phase was drained and washed with HEPES buffer. Aromatase products containing phenolic hydroxy group were extracted with 1.2 M sodium hydroxide solution from the toluene extract and the alkaline phase was measured in the LSC. […]
was extracted with toluene. […]
as §7, §1
as §2, with “the” for “the Dixon’s graphs and the secondary plot of slopes of the Dixon’s lines vs. 1/substrate”

aromatase enzyme = target: aromatase enzyme; set-up: method as in PMID 16039845; details: cited from earlier work
steroid sulfatase (STS) [4] = target: T3, steroid sulfatase (STS); test: STS inhibition reversibility test (preincubation with placental microsomes, 50-fold dilution); type: biochemical; details: preincubation 7a 1.5 μM, 16c 10 μM; for STS binding reversibility: 50-fold dilution, 20 min secondary incubation

SMILES | 17β-HSD1 binding reversibility (17β-HSD1) | IC50 [1] [µM] | 17β-HSD1 inhibition mechanism [2] | IC50 [2] [µM] | Ki [2] [µM] | IC50 (steroid sulfatase (STS) [3]) [µM] | remaining activity at 10 µM (human aromatase) [%] | IC50 (aromatase enzyme) [µM] | IC50 (human aromatase) [µM] | time in which irreversible binding to STS is nearly completed (steroid sulfatase (STS) [4]) [min] | STS binding reversibility (steroid sulfatase (STS) [4]) | STS inhibition mechanism (steroid sulfatase (STS) [3]) | Ki (steroid sulfatase (STS) [3]) [µM] | STS affinity higher compared to the E1S substrate (steroid sulfatase (STS) [3]; from IC50 values) [fold] | STS affinity increased compared to E1 (steroid sulfatase (STS) [3]; from IC50 values) [fold] | 17β-HSD1 Rel.conv. ± SD ([2]; 10 µM test compound, non-inhibited control 100%, mean ± SD, n = 3) [%] | Ki (aromatase enzyme) [µM] | enhancement in affinity to aromatase compared to E1 (aromatase enzyme) [fold]
C[C@@]12CC[C@@H]3c4ccc(O)c(I)c4CC[C@H]3[C@@H]1CCC2=O [11a] | reversible | 1 ± 0.3 | competitive | 0.38 | 2.2 | 6 ± 1.6 | 90 ± 7 |  |  |  |  |  |  |  |  |  |  | 
C[C@]12CC[C@@H]3c4cc(Br)c(O)cc4CC[C@H]3[C@@H]1CCC2=O [6b, 2-Bromoestrone] |  |  |  | 0.095 ± 0.031 |  | 2 ± 0.4 |  | 2.4 | 8.7 ± 2.8 |  |  |  |  |  |  |  |  | 
C[C@]12CC[C@@H]3c4ccc(O)c(I)c4CC[C@H]3[C@@H]1CCC2=O [7a, 4-iodoestrone] |  |  |  | 0.36 ± 0.25 |  | 0.23 ± 0.09 | 88 ± 2 |  |  | ≤ 2.5 | irreversible | competitive | 0.36 | 22 | 100 |  |  | 
C[C@]12CCC[C@H]1[C@@H]1CCc3c(cc(Cl)c(O)c3Cl)[C@H]1CC2 [16c, 2,4-bis-chloro-17-deoxy-13α-estrone] |  |  |  |  |  | 1.3 ± 0.4 | 82 ± 12 |  |  | ≤ 2.5 | irreversible | competitive | 1.9 |  |  | 53 ± 2 |  | 
C[C@@]12CC[C@@H]3c4cc(I)c(O)c(I)c4CC[C@H]3[C@@H]1CCC2=O [12a] | reversible | 0.38 ± 0.08 | competitive | 1 | 0.94 | 2.4 ± 0.5 | 91 ± 1 |  |  |  |  |  |  |  |  |  |  | 
C[C@]12CC[C@@H]3c4cc(Cl)c(O)cc4CC[C@H]3[C@@H]1CCC2=O [6c, 2-Chloroestrone] |  |  |  | 0.18 ± 0.02 |  | 2.4 ± 0.4 |  |  | 6 ± 1.2 |  |  |  |  |  |  |  | 0.13 | ~20
